# Experimental data reported in patent US5491149A, “Dihydroxypropylamine containing retroviral protease inhibitors” (The Du Pont Merck Pharmaceutical Company, priority 1994, dated 1996).
# pIC50: −log10 of the molar value.
# Legend:
# HIV protease = target: T1, HIV protease (Human immunodeficiency virus type 1 group M subtype B, UniProt P04585); assay: Cell Free HIV Protease Inhibition Assay (gag polyprotein); type: biochemical; details: HIV gag polyprotein substrate, 30° C.
# T1 construct: plasmid containing HIV protease under the control of the T7 promotor; made in house; host or cells: E. coli (crude lysate, lac promoter)
# Excerpt: Procedure III: Cell Free Protease Inhibition Assay Materials:
# HIV gag polyprotein corresponding to all of p17 and 78 amino acids of p24, produced by in vitro translation using rabbit reticulocyte lysate and mRNA prepared in vitro from plasmid encoding full length gag polyprotein linerized with the restriction enzyme Pst 1. (see S. Erickson-Viitanen et al., AIDS Research and Human Retroviruses, 5 (6), 577 (1989) for plasmid construction, and basis for assay).
# Source of protease: Either (A) crude E. coli lysate of bacteria harboring a plasmid containing HIV protease under the control of the lac promotor, used at a final concentration of 0.5 mg/ml, or (B) inclusion bodies of E. coli harboring plasmid containing HIV protease under the control of the T7 promotor (Cheng et al., Gene, in press (1990)). Such inclusion bodies were solubilized in 8M urea, 50 mM Tris pH 8.0. Protease activity was recovered by dilution of the inclusion bodies 20-fold in buffer containing 50 mM Sodium Acetate, pH 5.5, 1 mM EDTA, 10% glycerol and 5% ethylene glycol. This protease source was used at a final concentration of 0.00875 mg/ml.
# Inhibitory compounds were dissolved in sufficient DMSO to make a 2.5 mM stock concentration. All further dilutions were done in DMSO.
# Into sterile test tubes were placed the following:
# 14 ul HIV protease in Phosphate Buffered Saline (20 mM Sodium Phosphate, 0.15M NaCl, pH 6.5).
# 5 μl of in vitro translation products.
# Reactions were incubated at 30° C., then quenched by the addition of Sample buffer. See U. K. Laemmli, Nature, 1970, 227:680-685.
# One fourth of each sample was analyzed on an 8-16% gradient denaturing acrylamide gel (Novex, Inc), according to Laemmli. Following electrophoresis, gels were fixed, impregnated with Enhance (Du Pont NEN, Boston, Mass.) and dried according to manufacturers instructions (NEN). Dried fluorographs were exposed to film and/or quantitated using an Ambis radioanalytic scanner.
# Each group of test compounds was compared to the values obtained for pepstatin, a well known inhibitor of acid proteases . Inhibitory concentration for 50% inhibition (IC50) is determined from plots of log concentration inhibitor versus % inhibition of protease activity.
# Biological Activity: IC50 is the concentration necessary for reducing the activity of the enzyme by 50%.
# [1] = tested on: HIV(3B) or HIV(RF) in MT-2 human T-cells; assay: HIV Low Multiplicity Assay (XTT, MT-2 cells); type: cell-based; details: Human immunodeficiency virus 1, MT2, 168 h, 90% protection, multiplicity of infection 0.01, 7 days
# Experimental: HIV Low Multiplicity Assby
# MT-2, a human T-cell line, was cultured in RPMI medium supplemented with 5% (v/v) heat inactivated fetal calf serum (FCS), L-glutamine and gentamycin (GIBCO). Human immunodeficiency virus strains HIV(3B) and HIV(Rf) were propagated in H-9 cells in RPMI with 5% FCS. XTT, benzene-sulfonic acid, 3,3'-[1-[(phenylamino)carbonyl]-3,4-tetrazolium]bis(4-methoxy-6-nitro)-, sodium salt, was obtained from Starks Associates, Inc.
# Test compounds were dissolved in dimethyl-sulfoxide to 5 mg/ml and serially diluted into RPMI medium to ten times the desired final concentration. MT-2 cells (5×10^4 /0.1 ml) were added to each well of a 96 well culture plate and 0.02 ml of the appropriate test compound solution was added to the cells such that each compound concentration was present in two wells. The cells and compounds were allowed to sit for 30 minutes at room temperature. HIV(3B) or HIV(RF) (~5×10^5 plaque forming units/ml) was diluted in medium and added to the cell and compound mixtures to give a multiplicity of infection of 0.01 plaque forming unit/cell. The mixtures were incubated for 7 days at 36° C., during which time the virus replicated and caused the death of unprotected cells. The percentage of cells protected from virus induced cell death was determined by the degree of metabolism of the tetrazolium dye, XTT. In living cells, XTT was metabolized to a colored formazan product which was quantitated spectrophotometrically at 450 nm. The amount of colored formazan was proportional to the number of cells protected from virus by the test compound. The concentration of compound protecting either 50% (IC50) or 90% (IC90) with respect to an uninfected cell culture was determined.
SMILES,pIC50 (HIV protease),IC90 [1] [mg/L]
"CC[C@H](C)[C@H](NC(=O)OCc1ccccc1)C(=O)N[C@@H](Cc1ccccc1)[C@H](O)[C@H](O)CN1C[C@H]2CCCC[C@H]2C[C@H]1C(=O)NC(C)(C)C [Example 4, [3S-[2[1R*(R*,R*),2R*,3S*],3a,4ab,8ab]]-(phenylmethyl)[1-[[[4-[3-[[(1,1-dimethylethyl)amino]carbonyl]octahydro-2(1H)-isoquinolinyl]-2,3-dihydroxy-1-(phenylmethyl)butyl]amino]carbonyl]-2-methylbutyl]carbamate]",5.53,1
"CC(C)(C)NC(=O)[C@@H]1C[C@@H]2CCCC[C@@H]2CN1C[C@@H](O)[C@H](O)[C@H](Cc1ccccc1)NC(=O)[C@H](CC(N)=O)NC(=O)c1ccc2ccccc2n1 [Example 9, [3S-[2[1R*(R*),2S*,3S*],3a,4ab,8ab]]-N1-[4-[3-[[(1,1-dimethylethyl)amino]carbonyl]octahydro-2(1H)-isoquinolinyl]-2,3-dihydroxy-1-(phenylmethyl)butyl]-2-[(2-quinolinylcarbonyl)amino]butanediamide]",< 4.75,3
"CC(C)(C)NC(=O)[C@@H]1C[C@@H]2CCCC[C@@H]2CN1C[C@@H](O)[C@@H](O)[C@H](Cc1ccccc1)NC(=O)[C@H](CC(N)=O)NC(=O)c1ccc2ccccc2n1 [Example 2, [3S-[2[1R*(R*),2R*,3S*],3a,4ab,8b]]-N1-[4-[3-[[(1,1-dimethylethyl)amino]carbonyl]octahydro-2(1H)-isoquinolinyl]-2,3-dihydroxy-1-(phenylmethyl)butyl]-2-[(2-quinolinylcarbonyl)amino]butanediamide]",6.27,0.3
"CC(C)(C)NC(=O)[C@@H]1C[C@@H]2CCCC[C@@H]2CN1C[C@@H](O)[C@H](O)[C@H](Cc1ccccc1)NC(=O)[C@H](CC(N)=O)NC(=O)OCc1ccccc1 [Example 8, [3S-[2[1R*(R*),2S*,3S*],3a,4ab,8ab]]-(phenylmethyl)[3-amino-1-[[[4-[3-[[(1,1-dimethylethyl)amino]carbonyl]octahydro-2(1H)-isoquinolinyl-2,3-dihydroxy-1-(phenylmethyl)butyl]amino]carbonyl]-3-oxopropyl]carbamate]",< 4.74,> 30
"CC(C)[C@H](NC(=O)OCc1ccccc1)C(=O)N[C@@H](Cc1ccccc1)[C@H](O)[C@H](O)CN1C[C@H]2CCCC[C@H]2C[C@H]1C(=O)NC(C)(C)C (relative stereo) [Example 3, [3-[2[1R*(R*),2R*,3S*],3a,4ab,8ab]]-(phenylmethyl)[1-[[[4-[3-[[(1,1-dimethylethyl)amino]carbonyl]octahydro-2(1H)-isoquinolinyl-2,3-dihydroxy-1-(phenylmethyl)butyl]amino]carbonyl]-2-methylpropyl]carbamate]",5.68,1.7
"CC(C)(C)NC(=O)[C@@H]1C[C@@H]2CCCC[C@@H]2CN1C[C@H](O)[C@@H](O)[C@H](Cc1ccccc1)NC(=O)[C@H](CC(N)=O)NC(=O)c1ccc2ccccc2n1 [Example 7, [3S-[2[1R*(R*),2R*,3R*],3a,4ab,8ab]]-N1-[4-[3-[[(1,1-dimethylethyl)amino]carbonyl]octahydro-2(1H)-isoquinolinyl]-2,3-dihydroxy-1-(phenylmethyl)butyl]-2-[(2-quinolinylcarbonyl)amino]butanediamide]",5.55,2.2
"CC(C)(C)NC(=O)[C@@H]1C[C@@H]2CCCC[C@@H]2CN1C[C@H](O)[C@H](O)[C@H](Cc1ccccc1)NC(=O)[C@H](CC(N)=O)NC(=O)OCc1ccccc1 [Example 5, [3S-[2[1R*(R*),2S*,3R*],3a,4ab,8ab]]-(phenylmethyl)[3-amino-1-[[[4-[3-[[(1,1-dimethylethyl)amino]carbonyl]octahydro-2(1H)-isoquinolinyl]-2,3-dihydroxy-1-(phenylmethyl)butyl]amino]carbonyl]-3-oxopropyl]carbamate]",< 4.74,> 30
"CC(C)(C)NC(=O)[C@@H]1C[C@@H]2CCCC[C@@H]2CN1C[C@@H](O)[C@@H](O)[C@H](Cc1ccccc1)NC(=O)[C@H](CC(N)=O)NC(=O)OCc1ccccc1 [Example 1, [3S-[2[1R*(R*),2R*,3S*],3a,4ab,8ab]]-(phenylmethyl)[3-amino-1-[[[4-[3-[[(1,1-dimethylethyl)amino]carbonyl]octahydro-2(1H)-isoquinolinyl]-2,3-dihydroxy-1(phenylmethyl)butyl]amino]carbonyl]-3-oxopropyl]carbamate]",5.52,2
"CC(C)(C)NC(=O)[C@@H]1C[C@@H]2CCCC[C@@H]2CN1C[C@H](O)[C@H](O)[C@H](Cc1ccccc1)NC(=O)[C@H](CC(N)=O)NC(=O)c1ccc2ccccc2n1 [Example 6, [3S-[2[1R*(R*),2S*,3R*],3a,4ab,8ab]]-N1-[4-[3-[[(1,1-dimethylethyl)amino]carbonyl]octahydro-2(1H)-isoquinolinyl]-2,3-dihydroxy-1-(phenylmethyl)butyl]-2-[(2-quinolinylcarbonyl)amino]butanediamide]",< 4.75,10
